Patent US9284325B2, “Spectinamides as anti-tuberculosis agents” (UNIVERSITY OF TENNESSEE RESEARCH FOUNDATION, priority 2009, dated 2016)
Where a name gives a salt, the structure may show the parent alone.

Legend:
[1] = test system: M. tuberculosis H37Rv; test: MIC determination by microbroth dilution, anti-tuberculosis activity; assay type: cell-based, Mycobacterium tuberculosis; conditions: Mycobacterium tuberculosis, H37RV, 168 h; read-out: MIC
[2] = test system: S. aureus 8325 or strain ATCC 29213; test: MIC determination by microbroth dilution; assay type: cell-based, Staphylococcus aureus; conditions: Staphylococcus aureus, ATCC29213; S. aureus 8325 or strain ATCC 29213 (for 1471-1544)
[3] = test system: Strep. pyogenes ATCC 700294; test: MIC determination by microbroth dilution; assay type: cell-based, Streptococcus pyogenes; conditions: Streptococcus pyogenes, ATCC700294, read-out: MIC S. pyogenes
[4] = test system: Strep. pneumoniae DAW27 or strain R6; test: MIC determination by microbroth dilution; assay type: cell-based, Streptococcus pneumoniae; conditions: Streptococcus pneumoniae; Strep. pneumoniae DAW27 or strain R6 (for 1443-1544); read-out: MIC S. pneumoniae
[5] = test system: E. faecalis ATCC 33186; test: MIC determination by microbroth dilution; assay type: cell-based, Enterococcus faecalis; conditions: Enterococcus faecalis, ATCC33186
[6] = test system: B. anthracis Sterne 34F2; test: microbe, parasite or virus in culture; assay type: cell-based, Bacillus anthracis; conditions: Bacillus anthracis, STERNE34F2, read-out: MIC B. anthracis 34F2
[7] = test system: Burkholderia cepacia ATCC 25416; test: MIC determination by microbroth dilution; assay type: cell-based; conditions: ATCC25416, read-out: MIC B. cepcia
[8] = test system: Proteus mirabilis ATCC 25933; test: MIC determination by microbroth dilution; assay type: cell-based; conditions: ATCC25933
[9] = test system: Proteus vulgaris ATCC 33420; test: MIC determination by microbroth dilution; assay type: cell-based; conditions: ATCC33420
[10] = test system: Klebsiella pneumoniae ATCC 33495; test: MIC determination by microbroth dilution; assay type: cell-based; conditions: ATCC33495
[11] = test system: Acinetobacter baumannii ATCC 19606; test: MIC determination by microbroth dilution; assay type: cell-based; conditions: ATCC19606
[12] = test system: P. aeruginosa PAO1; test: MIC determination by microbroth dilution; assay type: cell-based, Pseudomonas aeruginosa; conditions: Pseudomonas aeruginosa
[13] = test system: Strenotrophomonas maltophilia ATCC 13637; test: MIC determination by microbroth dilution; assay type: cell-based
[14] = test system: E. coli K12; test: MIC determination by microbroth dilution; assay type: cell-based, Escherichia coli; conditions: Escherichia coli, K12
[15] = test system: E. coli K12 ΔtolC; test: microbe, parasite or virus in culture; assay type: cell-based; conditions: Escherichia coli, read-out: MIC E. coli K12 ΔtolC

Compound	MIC [1] [µg/mL]	MIC [2] [µg/mL]	MIC [3] [µg/mL]	MIC [4] [µg/mL]	MIC [5] [µg/mL]	MIC [6] [µg/mL]	MIC [7] [µg/mL]	MIC [8] [µg/mL]	MIC [9] [µg/mL]	MIC [10] [µg/mL]	MIC [11] [µg/mL]	MIC [12] [µg/mL]	MIC [13] [µg/mL]	MIC [14] [µg/mL]	MIC [15] [µg/mL]
CN[C@@H]1[C@H](O)[C@H](NC)C2O[C@]3(O)C(OC2[C@H]1O)O[C@H](C)C[C@H]3NC(=O)CCc1ccccn1 (stereo partly drawn) [Compound 1518, 3′-Dihydro-3′-deoxy-4(R)-(pyridin-2-yl)propanoylamino spectinomycin trihydrobromide]	50	200	6.25	12.5	> 200	> 200	> 200	> 200	> 200	> 200	> 200	> 200	> 200	> 200	50
CN[C@@H]1[C@H](O)[C@H](NC)C2O[C@]3(O)C(OC2[C@H]1O)O[C@H](C)C[C@H]3NCC1CC1 (stereo partly drawn) [Compound 1419, 3′-Dihydro-3′-deoxy-4(R)-cyclopropylmethylamino spectinomycin Trihydrochloride]	50	100	50	100	200	50	> 200	> 200	> 200	> 200	> 200	> 200	> 200	100	25
CN[C@@H]1[C@H](O)[C@H](NC)C2O[C@]3(O)C(OC2[C@H]1O)O[C@H](C)C[C@H]3NC(=O)C[C@@H](N)c1ccc(F)cc1 (stereo partly drawn) [Compound 1487, 3′-Dihydro-3′-deoxy-4(R)-[3(R)-amino,3-(4-fluorophenyl)]propanoylamino spectinomycin Trihydrochloride]	200	> 200	50	12.5	> 200	> 200	> 200	> 200	> 200	> 200	> 200	> 200	> 200	200	200
CN[C@@H]1[C@H](O)[C@H](NC)C2O[C@]3(O)C(OC2[C@H]1O)O[C@H](C)C[C@H]3NC(=O)Cc1ccc(-c2ccc(Cl)cc2)cn1 (stereo partly drawn) [Compound 1535, 3′-Dihydro-3′-deoxy-4(R)-(5-(4-chlorophenyl)pyridin-2-yl)acetylamino spectinomycin trihydrobromide]	3.12	50	1.6	0.8	3.1	> 200	> 200	> 200	> 200	> 200	> 200	100	> 200	200	< 6.25
CN[C@@H]1[C@H](O)[C@H](NC)C2O[C@]3(O)C(OC2[C@H]1O)O[C@H](C)C[C@H]3NC(=O)c1ccccc1F (stereo partly drawn) [Compound 1492, 3′-Dihydro-3′-deoxy-4(R)-(2-fluorobenzene-1-yl)carboxylicamino spectinomycin dihydrochloride]	> 200	> 200	50	100	> 200	> 200	> 200	> 200	> 200	> 200	> 200	> 200	> 200	> 200	200
CC[C@H](C)[C@H](N)C(=O)N[C@@H]1C[C@@H](C)OC2OC3C(O[C@]21O)[C@@H](NC)[C@@H](O)[C@@H](NC)[C@@H]3O (stereo partly drawn) [Compound 1485, 3′-Dihydro-3′-deoxy-4(R)-[(2S,3S)-2-amino,3-methyl]pentanoylamino spectinomycin Trihydrochloride]	200	> 200	25	25	> 200	> 200	> 200	> 200	> 200	> 200	> 200	> 200	> 200		> 200
CN[C@@H]1[C@H](O)[C@H](NC)C2O[C@]3(O)C(OC2[C@H]1O)O[C@H](C)C[C@H]3NC(=O)Cc1cccc(C)c1 (stereo partly drawn) [Compound 1412, 3′-Dihydro-3′-deoxy-4(R)-m-tolylacetylamino spectinomycin Dihydrochloride]	25	50	25	25	200	100	> 200	> 200	> 200	> 200	> 200	100	> 200	> 200	200
CN[C@@H]1[C@H](O)[C@H](NC)C2O[C@]3(O)C(OC2[C@H]1O)O[C@H](C)C[C@H]3NC(=O)[C@@H](O)CCN (stereo partly drawn) [Compound 1493, 3′-Dihydro-3′-deoxy-4(R)-(2(S)-4-amino-2-hydroxy)butanoylamino spectinomycin trihydrochloride]	> 200	> 200	50	50	> 200	> 200	> 200	> 200	100	> 200	> 200	> 200	> 200	100	25
CN[C@@H]1[C@H](O)[C@H](NC)C2O[C@]3(O)C(OC2[C@H]1O)O[C@H](C)C[C@H]3NC(=O)Cc1csc(Nc2ccc(C(F)(F)F)cc2)n1 (stereo partly drawn) [Compound 1541, 3′-Dihydro-3′-deoxy-4(R)-(2-((4-(trifluoromethyl)phenyl)amino)-thiazol-4-yl)acetylamino spectinomycin tribromide]	6.25	100	6.25	3.1	25	> 200	> 200	> 200	> 200	> 200	> 200	25	200	> 200	12.5
CN[C@@H]1[C@H](O)[C@H](NC)C2O[C@]3(O)C(OC2[C@H]1O)O[C@H](C)C[C@H]3NCCc1ccccc1 (stereo partly drawn) [Compound 1450, 3′-Dihydro-3′-deoxy-4(R)-2-phenylethylamino spectinomycin Trihydrochloride]	200														
CN[C@@H]1[C@H](O)[C@H](NC)C2O[C@]3(O)C(OC2[C@H]1O)O[C@H](C)C[C@H]3NC(=O)[C@@H](N)C(C)C (stereo partly drawn) [Compound 1486, 3′-Dihydro-3′-deoxy-4(R)-[2(S)-amino,3-methyl]butanoylamino spectinomycin Trihydrochloride]	200	> 200	50	> 200	> 200	> 200	> 200	> 200	> 200	> 200	> 200	> 200	> 200		> 200
